What was measured:
[1] = test system: soft rot of Chinese cabbage; assay: Test for controlling soft rot of Chinese cabbage, Example 3 / Comparative Example 3 (field, cultivar Muso); type: in vivo; conditions: 500 g ai/10 a, 150 L/10 a sprayed onto planting holes before planting, 51 days after start
From the text: (§1) Frequency of the disease=[sigma(number of plants with the onset of the disease at each severity level*index of the onset of the disease)/(plants examined*4)]*100
(§2) Disease control value=[1-(frequency of the disease in the treated lot/frequency of the disease in the non-treated lot)]*100
(§3) • 0: No onset • 1: Onset in some of outer leaves (shippable) • 2: Onset in outer leaves and some of head leaves (by removing damaged parts, the resulting cabbage can be shipped as small cabbage but is ranked as grade B). • 3: Most of head leaves are inflicted with the onset of the disease or with severer damages (not shippable) • 4: Whole cabbage plant is inflicted with the onset of the disease and is dead.
442 g/l kresoxim-methyl (STROBY FLOWABLE [trade name], manufactured by BASF) was adjusted to 500 g ai/10a (0.5 g/m^2, 1131 ml Product/10a) as the amount of the active ingredient and to 150 L/10a as the volume of diluent water. […]
(§4) 51 days after the start of the tests, all the plants in each lot were examined about the severity level of the disease to assess the frequency of the disease and the disease control value. The frequency of the disease and the disease control value were determined in the same manner as described above. Because soft rot is a disease with damages hardly controlled, herein, even a chemical at the level C determined by the tests of the effects can practically be used.

[2] = test system: soft rot of Chinese cabbage; assay: Test for controlling soft rot of Chinese cabbage, Example 4 / Comparative Example 4 (field, cultivar Ouraku 60); type: in vivo; conditions: 500 g ai/10 a, 150 L/10 a sprayed onto planting holes before planting, 49 days after start
From the text: as §1, §2, §3
442 g/lkresoxim-methyl (STROBY FLOWABLE [trade name], manufactured by BASF) was adjusted to 500 g ai/10a (0.5 g/m^2, 1131 ml Product/10a) as the amount of the active ingredient and to 150 L/10a as the volume of diluent water.
70% w/w thiophanate methyl (Topsin M WF [trade name], manufactured by Nippon Soda Co., Ltd.) was adjusted to 1000 g ai/10a (1 g/m^2, 1429 g Product/10a) as the amount of the active ingredient and to 150 L/10a as the volume of diluent water.
50% w/w boscalid (Cantus DF [trade name], manufactured by BASF) was adjusted to 500 g ai/10a (0.5 g/m^2; 1000 g Product/10a) as the amount of the active ingredient and to 150 L/10a as the volume of diluent water.
50% w/w procymidone (Sumilex WP [trade name], manufactured by Sumitomo Chemical Agro) was adjusted to 500 g ai/10a (0.5 g/m^2, 1000 g Product/10a) as the amount of the active ingredient and to 150 L/10a as the volume of diluent water.
400 g/l iprodione (Rovral 500 Aqua [trade name], manufactured by Bayer Crop Science Co., Ltd.) was adjusted to 500 g ai/10a (0.5 g/m^2, […] Product/10a) as the amount of the active ingredient and to 150 L/10a as the volume of diluent water.
200 g/l fludioxonil (Seibia FLOWABLE [trade name], manufactured by Syngenta Japan K.K.) was adjusted to 500 g ai/10a (0.5 g/m^2, 2500 ml Product/10a) as the amount of the active ingredient and to 150 L/10a as the volume of diluent water.
400 g/l mepanipyrim (Flupika PLOWABLE [trade name], manufactured by Nippon Soda Co., Ltd.) was adjusted to 500 g ai/10a (0.5 g/m^2, 1250 ml Product/10a) as the amount of the active ingredient and to 150 L/10a as the volume of diluent water.
After spreading an agricultural mulch-sheet and opening planting holes (diameter of about 5 cm) for permanent planting through the mulch-sheet, the spray solutions prepared as described above were sprayed onto the planting holes such that the amount of treated active ingredient of each spray solution was 0.5 g/m^2 (150 L per 10a), followed by air-drying; subsequently, seedlings of Chinese cabbage (cultivar: Ouraku 60) grown for 4 weeks in cell mold trays (128 holes/nursery box) were planted such that 30 seedlings were planted in each test lot having an area of 2.5 m^2 with two replications.
Preparation was performed by diluting a chemical solution (Agrimycin WP100 [trade name] manufactured by Pfizer) containing oxytetracycline at 1.5% and streptomycin sulfate salt at 18.8% with water to 1/1500.
In a field spread with the agricultural mulch-sheet, Chinese cabbage seedlings (cultivar: Ouraku 60) grown by the same method as in Example 4 were planted by the same method as in Example 4, for spraying the spray solution prepared above in (1) (at each spray volume of 300 L/10a) twice (28 days and 42 days after the planting of the seedlings) on the stems and leaves.
as §4, with “49” for “51”, “Herein, the” for “The”

[3] = test system: bacteria causing the soft rot (Erwinia carotovora); assay: Inhibition test of growth of bacteria causing soft rot, Reference Test Example 4; type: cell-based; conditions: for formed colonies (growth state), grade: PSA medium, 27 degrees Celsius, 2 days
From the text: An inhibition test of the growth of bacteria causing the soft rot was done, when a control agent was directly applied to the bacteria causing the soft rot. A given volume of each pesticide of kresoxim-methyl (STROBY DF [trade name] manufactured by BASF), thiophanate methyl (Topsin M WP [trade name], manufactured by Nippon Soda Co., Ltd), boscalid (Cantus DF [trade name] manufactured by BASF), procymidone (Sumilex WP [trade name] manufactured by Sumitomo Chemical Agro Co., Ltd.) and streptomycin (Mycin Wettable powder [trade name] manufactured by Hokko Chemical Industry Co., Ltd.) was added together with a suspension of the bacteria causing the soft rot (Erwinia carotovora) to a preliminarily dissolved PSA culture medium (55 degrees Celsius) for subsequent thorough agitation, which was then spread on a plate for culturing at 27 degrees Celsius for 2 days, to examine the growth state. Subsequently, the formed colonies were examined according to the following three grades. • +: at the same level as the level of non-treated lot. Plus or minus: apparently less than the colonies of the non-treated lot. • −: almost no colonies observed.

In the case of `CO/N=C(/C(=O)OC)c1ccccc1COc1ccccc1C` [Kresoxim-methyl, methyl=(E)-methoxyimino[2-(o-tolyloxymethyl)phenyl]acetate], the Determination of effect [1] is reported as “C (C: Effective at low level (21 to 40 disease control value))”, the Determination of effect [2] is reported as “C (C: Effective at low level (21 to 40 disease control value))” and the “formed colonies (growth state), grade” value ([3]; 100 ppm active ingredient) is reported as “+, +”. The “formed colonies (growth state), grade” value ([3]; 500 ppm active ingredient) was “+, +”, the “formed colonies (growth state), grade” value ([3]; 1000 ppm active ingredient) was “+, +” and the “inhibition of growth of Erwinia carotovora (in words)” value ([3]; active ingredient concentration of 1,000 ppm) was “never inhibited the growth”.

— patent US20130123287A1, “CONTROL AGENT FOR SOFT ROT AND CONTROL METHOD FOR THE SAME” (ISHIHARA SANGYO KAISHA, LTD., priority 2010, published 2013)
